# Test results as given in US5652222A, “Selective inhibition of leukemic cell proliferation by bcr-abl antisense oligonucleotides” (Temple University-of The Commonwealth System of Higher …, priority 1993, dated 1997).
# Columns and labels:
# [1] = test system: cell line ALL-1 (b1a2 junction); assay: Leukemic cell number of Ph1-positive ALL cell line expressing b1a2 junction; format: cell-based, human; settings: 50 μg at time zero, 25 μg/ml at 24 and 48 h; vs control and mismatch-treated cultures (FIG. 6)
# [2] = test system: K562; settings: Caracciolo et al., Science 245; cited from earlier work
# [3] = test system: bcr-abl protein; settings: cited from earlier work
# [4] = test system: BV173 cells (b2/a2); assay: Proliferation of BV173 cells expressing b2a2 junction; format: cell-based, human
# Protocol: Amplification of the bcr-abl junction with a 5' primer corresponding to bcr exon 2, and a 3' primer corresponding to abl exon 2, followed by hybridization to an 18-mer specific for the b2/a2 or the b3/a2 junction identified the b2/a2 breakpoint in these cells (data not shown).
# The sensitivity of the BV173 cells to b2/a2 antisense phosphorothioate oligodeoxynucleotides was assessed. Phosphorothioate oligodeoxynucleotides were prepared on either an Applied Biosystems Model 380B or 390Z Automated Synthesis instrument using conventional phosphoramidite monomers and manufacturer-recommended procedures, which included substitution of tetraethylthiuran (or an equivalent sulfur-donor reagent) for iodine-water-pyridine, […] reversed-phase preparative chromatography, detritylation, and obtaining the final product in the form of its sodium salt, all according to previously published methodology: Zon and Stec, in Oligonucleotides and Analogues A Practical Approach, F. Eckstein, Ed. (Oxford Univerisity Press, Oxford 1991), pp. 87-108; Zon and Geiser, Anti-Cancer Drug Design 6, 539 (1991); Vu and Hirschenbein, Tetrahedron Lett. 32, 3005-3008 (1991).
# BV173 cells were cultured in the presence of phosphorothioate b2/a2 antisense 26-mer CGCTGAAGGG CTTCTTCCT ATTGAT (SEQ ID NO:29), the phosphorothioate sense sequence ATCAATAAGGAAGCCCTTCAGCG (SEQUENCE ID NO:34), or the b3/a2 (SEQ ID NO:31) or b1/a2 (SEQ ID N0:33) phosphorothioate antisense 26-mer. […] The sense oligomer SEQ ID NO:34 gave no inhibition (FIG. 7, -.largecircle.-) in comparison to untreated control cells (FIG. 7, -.quadrature.-).
# [5] = test system: BV173 cells; assay: Clonogenic assay of tissues of leukemic SCID mice; format: in vivo, SCID mice (human leukemic cells)
# Protocol: A second assay for leukemic disease comprised a clonogenic assay in semisolid medium. […] By contrast, BV173 cells formed numerous, rapidly growing colonies. To rule out the possibility that the presence of BV173 cells permitted the growth of murine progenitors, mixing experiments were carried out.
# (§1) To determine whether synthetic phosphorothioate oligodeoxynucleotides targeted against the bcr-abl junction of […] cells would modify the disease process in SCID mice. SCID mice were injected with 10^6 BV173 cells. The mice then received 1 mg of sense (ATCAATAAGG AAGCCCTTCAGCG, SEQ ID NO:34) or antisense ([…] ATTGAT, SEQ ID NO:29) b2/a2 bcr-abl phosphorothioate oligodeoxynucleotides (pyrogen leven <1 Eu/mg; 0.2 ml in Iscove modified Dulbecco medium in 5-10 seconds) intravenously for each of 9 consecutive days, beginning either 7 or 21 days after introducing 10^6 BV173 cells. Control mice received the diluent (iscove's modified Dulbecco medium) only. These time points approximate distinct disease stages in humans.
# 10^5 cells were plated in duplicate in 35×10 mm tissue culture dishes (Nunc, Inc., Naperville, Ill.) in HCC-4230 medium (Terry Fox Lab., Vancouver, Canada) supplemented with 2.5 mM L-glutamine, and allowed to grow for 12 days. Plates were scanned with an inverted microscope and total colony number was determined. The results are shown in FIG. 9 (C, untreated mouse; S, sense-treated mouse, AS, antisense-treated mouse).
# [6] = test system: BV173 cells (cALL antigen (CALLA)-positive cells); assay: Immunofluorescence / flow cytometry of CALLA-positive cells in tissues of leukemic SCID mice; format: in vivo, SCID mice (human leukemic cells)
# Protocol: A first assay comprised an immunofluorescence analysis of cALL antigen (CALLA)-positive cells. All BV173 cells but not normal murine hematopoietic cells express this antigen (assay sensitivity=10^-2). Single cell suspensions were prepared for flow cytometry analysis from peripheral blood, spleen and bone marrow cells of the leukemic SCID mice by centrifugation on a lymphocyte-M gradient (Cedarlane Labs, Ltd., Ontario, Canada). Cells (1×10^5) were stained with the FITC-conjugated mouse anti-CALLA monoclonal antibody (Becton-Dickinson Immunocytometry Systems, San Jose, Calif.) to human CD10 antigen. After staining, cells were washed and analyzed by flow cytometry using the Epics Profile Analyzer (Coulter Electronic).
# as §1
# [7] = test system: bcr-abl (b2/a2) transcripts; assay: RT-PCR of bcr-abl transcripts in tissues of leukemic SCID mice; format: in vivo, SCID mice (human leukemic cells)
# Protocol: According to a third assay, the extent of leukemic disease was assessed by chain RT-PCR to monitor the expression of b2/a2 transcripts (assay sensitivity=[…]) in total RNA isolated from bone marrow cells, splenocytes, peripheral blood leukocytes, liver, lung and brain tissues. Depending on the number of BV173 cells injected, various numbers of leukemic cells were detected by clonogenic assay and RT-PCR in murine tissues, 3 and 6 weeks after injection. A few days before the expected death of leukemic SCID mice, approximately 80, 65, and 10% cALLA-positive cells were detected in bone marrow cells, splenocytes and peripheral blood leukocytes, respectively.
# as §1
# At 7 (+7) and 21 (+21) days after injecting SCID mice with 10^6 BV173 cells, single cell suspensions were prepared from various tissues. After lysing red cells with 0.83% NH4 Cl buffered with 0.17 mM Tris-HCl, pH 7.4, total RNA was extracted as described (Chomczynski and Sacchi, Anal. Biochem. 162, 156 (1987)) and the suspension was divided into two equal aliquots. Bcr-abl and β-actin transcripts were reverse-transcribed and amplified with specific primers and Taq polymerase as described by Szczylik et al., Science 253, 562 (1991). Amplification products were separated on a 2% agarose gel, transferred to a nitrocellulose filter and hybridized with a synthetic 40-base c-abl fragment or 20-base β-actinfragment end-labeled with [γ^32 -P]-ATP and polynucleotide kinase. The c-abl probe recognizes an amplified 257-bp sequence containing the bcr-abl junction: the β-actin probe recognizes a 209-bp fragment, contained within the 5' and 3' β-actin primers (Tokunaga et al., Nucleic Acids Res. 14, 2829 (1986)).
# [8] = test system: BV173 cells; assay: Macroscopic examination / disease state of leukemic SCID mice; format: in vivo, SCID mice (human leukemic cells)
# Protocol: Injection of the mice with BV173 cells induces a disease closely resembling that in human leukemia patients.
# as §1
# [9] = test system: BV173 cells; assay: Survival of leukemic SCID mice; format: in vivo, SCID mice (human leukemic cells); settings: treatment starting from days +7 or +21 (FIG. 12)
# From the text: To determine the lethal dose of BV173 cells in the SCID mice, we injected from 10^3 to 10^7 cells into the tail vein and monitored survival at various times postinjection. Mice injected with 10^7, 10^6, 10^5, or 10^4 BV173 cells died 8-10, 9-12, 13-15, or 14-22 weeks later, respectively, due to leukemia cell growth as confirmed on necroscopy. Spleen weight was about 40 times higher than that in noninjected SCID mice while liver and kidneys had numerous metastases and were enlarged 10-fold as compared to noninjected mice. Mice injected with 10^3 BV173 cells were still alive 35 weeks post implantation, and leukemia was never detected. From this study, 10^6 cells was taken as a lethal dose.
# as §1
# [10] = format: in vivo, SCID mice; settings: mice treated with bcr-abl antisense
# Protocol: Severe combined immunodeficient (SCID) mice injected with leukemia cells developed a disease process closely resembling that in humans. […] The cell-associated accumulation of antisense oligomer in various organs reached 4-60 μM, which is more than adequate to inhibit growth of leukemic cells. (See FIG. 7).
# [11] = from day +21, 26 days after treatment (8 weeks)
substance,measurement,setting,value
SEQ ID NO:9: 18-mer antisense oligonucleotide GAAGGGCTTC TGCGTCTC completely complementary to the b1a2 junction (antisense GAAGGGCTTCTGCGTCTC; chemistry not given here),leukemic cell number,[1],significant reduction in leukemic cell number over the control and mismatch-treated cultures
"SEQ ID NO:27: antisense oligodeoxynucleotide TACTGGCCGC TGAAGGGC complementary to 18 nucleotides of the second exon of c-abl (antisense TACTGGCCGCTGAAGGGC; DNA, backbone and methylation of C not given here)",inhibition of the Ph1-positive cell line K562,[2],inhibition of the Ph^1 -positive cell line K562
same,reducing bcr-abl protein levels,"[3]; Caracciolo et al., Science 245",effective in reducing bcr-abl protein levels
same,specificity for the bcr-abl junction,[3]; hybridization to message from untranslocated abl,"not specific for the bcr-abl junction, as it also hybridizes to the message from untranslocated abl"
"SEQ ID NO:29: b2a2 antisense phosphorothioate 26-mer CGCTGAAGGGCTTCTTCCTT ATTGAT (antisense CGCTGAAGGGCTTCTTCCTTATTGAT; all phosphorothioate, sugars by position and methylation of C not given here)",inhibition of proliferation,"[4]; 3.0 μM, 9 days in culture",100%
same,inhibition of proliferation of BV173 cells,[4]; in comparison to untreated control cells (FIG. 7),Only the b2/a2 antisense oligodeoxynucleotide inhibited the proliferation of BV173 cells
same,"leukemic colonies, peripheral blood leukocytes","[5]; 1 mg/day i.v. x9 from day +7, killed 26 days after last treatment (6 weeks)",no detectable colonies
same,"leukemic colonies, peripheral blood mononuclear cells","[5]; 1 mg/mouse/day x9 from day +21, 12 days after last treatment (6 weeks), untreated 11.0±8.5",0 colonies
same,"leukemic colonies, spleen","[5]; 1 mg/mouse/day x9 from day +21, 12 days after last treatment (6 weeks), untreated 80.5±12.0",0 colonies
same,"leukemic colonies, bone marrow","[5]; 1 mg/mouse/day x9 from day +21, 26 days after treatment (8 weeks)",not after antisense treatment
same,CALLA+ cells in tissues,"[6]; from day +7, 26 days after last treatment (6 weeks)",No CALLA+ cells were detected
same,CALLA+ cells in tissues,"[6]; from day +21, 12 days after last treatment (6 weeks)",not detected after antisense treatment
same,CALLA+ cells in tissues,[6]; [11],not detected in the antisense-treated mouse
same,bcr-abl transcripts in tissues,"[7]; from day +7, 12 days after last treatment (4 weeks), blood, spleen, bone marrow, liver, lung, brain",not in the antisense-treated mouse
same,bcr-abl (b2/a2) transcripts in tissues,"[7]; from day +7, 26 days after last treatment (6 weeks), blood leukocytes, spleen, bone marrow, liver, lung, brain",no bcr-abl (b2/a2) transcripts in the tissues
same,"RT-PCR product (bcr-abl), spleen",[7]; [11],less abundant than in the sense-treated mouse
same,bcr-abl transcripts in tissues,[7]; [11],undetectable after antisense-treatment in each tissue analyzed except spleen
same,"apparently disease-free, days after injection of leukemic cells",[8]; 1 mg/mouse x9 i.v. from day 7,≥ 42 days
same,"apparently disease-free, days after injection of leukemic cells",[8]; 1 mg/mouse x9 i.v. from day 21,≥ 56 days
same,protection from leukemic disease,[8]; SCID mice injected with BV173 cells,protected from the disease
same,"macroscopic examination: metastases / leukemic nodules in liver, kidneys, splenomegaly","[8]; from day +21, 26 days after treatment (8 weeks), FIG. 11",not in antisense-treated animal
same,mortality / survival outcome,[9],prolonged survival
same,survival after i.v. injection of 10^6 BV173 cells,[9],≥ 16 weeks
same,cell-associated accumulation of antisense oligomer in various organs,[10],4 to 60 µM
